A word on the melting point: it is the temperature, or range, at which the solid turns liquid.

Data set [1] has as its system Smn protein. Description: Smn protein assay in cultured cells (SMN HTRF). In kind it is cell-based, human. Particulars: 48 hours; for EC1.5x (concentration giving 1.5-fold Smn protein increase): SMA Type 1 patient fibroblast cells (GM03813), 7-point concentration curve, SMN HTRF, concentration producing 1.5 times Smn protein vs DMSO vehicle control, read-out: EC1.5x for Smn protein expression; for maximum fold (Fold) increase of Smn protein: SMA patient fibroblast cells, 7-point concentration data, fold increase relative to vehicle control (SMN HTRF). In a few lines: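 Smn in SMA fibroblast lysates, measured by anti-SMN HTRF after 48 h compound exposure; EC1.5x from fold change over vehicle.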

Data set [2] deals with SMN2 minigene (full length SMN2 minigene mRNA containing SMN2 exon 7). Description: SMN2 minigene mRNA splicing RT-qPCR assay in cultured cells. The format is cell-based, human. The following applies: Homo sapiens, HEK293-H; HEK293H cells stably transfected with SMN2-A minigene; 24 hours; 7-point concentration curve; 1.5-fold relative to vehicle-treated cells; read-out: EC1.5x for production of full length SMN2 mRNA. Summed up:
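Lysates → one-step RT-qPCR, minigene-specific primers (0.4 μM final) + GAPDH multiplex, 40 cycles. FL/GAPDH vs DMSO; EC1.5x, star-binned.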
For orientation: In qPCR the cycle at which signal appears reflects the starting amount.

Compound `Cl.O=c1oc2cc(N3CCCNCC3)ccc2cc1-c1cn2cccnc2n1` [Compound 186, 7-(1,4-diazepan-1-yl)-3-(imidazo[1,2-a]pyrimidin-2-yl)-2H-chromen-2-one hydrochloride] returned a melting point of more than 300 °C. In data set [1], the EC1.5x (concentration giving 1.5-fold Smn protein increase) lay in the range of 1000 to 3000 nM; the “maximum fold (Fold) increase of Smn protein” value (shortened to “maximum fold (Fold) increase”) is “*** (fold increase between >1.35 and ≤1.5)”. For the same compound, in data set [2], the EC (1.5-fold) fell in the range of 0.1 to 0.3 µM.
In turn, `Cc1cn2cc(-c3cc4ccc(CNC(C)C)cc4oc3=O)nc2c(C)n1` [Compound 850, 3-(6,8-dimethylimidazo[1,2-a]pyrazin-2-yl)-7-[(propan-2-ylamino)methyl]-2H-chromen-2-one] had a melting point of 285 to 291 °C. The “maximum fold (Fold) increase” value in data set [1] is “** (fold increase between >1.2 and ≤1.35)”. Moreover, the EC (1.5-fold) in data set [2] is 0.3 to 1 µM.
The compound `Cc1ccc2oc(-c3cc4ccc(N5C[C@@H](C)N[C@@H](C)C5)cc4oc3=O)cc2n1` [Compound 720, 7-[(3R,5S)-3,5-dimethylpiperazin-1-yl]-3-(5-methylfuro[3,2-b]pyridin-2-yl)-2H-chromen-2-one] came in with a melting point of 179 to 183 °C. In addition, in data set [1], the “maximum fold (Fold) increase” value is “** (fold increase between >1.2 and ≤1.35)”. Besides, the EC (1.5-fold) in data set [2] is 0.3 to 1 µM.
For the compound `Cc1nn2cc(-c3cc4ccc(N5CCN(C)CC5)cc4oc3=O)nc2s1` [Compound 442, 3-(2-methylimidazo[2,1-b][1,3,4]thiadiazol-6-yl)-7-(4-methylpiperazin-1-yl)-2H-chromen-2-one], the melting point was in the range of 233 to 236 °C. Also, the “maximum fold (Fold) increase” value in data set [1] was “** (fold increase between >1.2 and ≤1.35)”. Besides, the EC (1.5-fold) in data set [2] was in the range of 3 to 30 µM.
Turning to `Cl.O=c1oc2cc(N3CCNCC3)ccc2cc1-c1nc2c(Cl)cccc2o1` [Compound 70, 3-(4-chloro-1,3-benzoxazol-2-yl)-7-(piperazin-1-yl)-2H-chromen-2-one hydrochloride], the melting point was 278 to 282 °C. In data set [1], the “maximum fold (Fold) increase” value is “* (maximum fold increase of ≤1.2)”. In data set [2], the EC (1.5-fold) lay within 0.3 to 1 µM.
On the same counts, the results for `CC(=O)O.CCN1CCN(c2ccc3cc(-c4ccc5nc(C)sc5c4)c(=O)oc3c2)C[C@@H]1C` [Compound 777, 7-[(3S)-4-ethyl-3-methylpiperazin-1-yl]3-(2-methyl-1,3-benzothiazol-6-yl)-2H-chromen-2-one acetate] are 180 to 182 °C, “* (maximum fold increase of ≤1.2)” and 3 to 30 µM.
Take `CN1CCN(c2cc(F)c3cc(-c4cn5ccsc5n4)c(=O)oc3c2)CC1` [Compound 372, 5-fluoro-3-(imidazo[2,1-b][1,3]thiazol-6-yl)-7-(4-methylpiperazin-1-yl)-2H-chromen-2-one]: the melting point is 268 to 271 °C. The “maximum fold (Fold) increase” value in data set [1] is “** (fold increase between >1.2 and ≤1.35)”. Also, in data set [2], the EC (1.5-fold) lay in the range of 0.1 to 0.3 µM.
With `Cc1cccc(-c2cc3ccc(N4CCN[C@@H](C)C4)cc3oc2=O)c1` [Compound 512, 3-(3-methylphenyl)-7-[(3S)-3-methylpiperazin-1-yl]-2H-chromen-2-one], the melting point is 101 to 103 °C. The “maximum fold (Fold) increase” value in data set [1] is listed as “* (maximum fold increase of ≤1.2)”. For the same compound, the EC (1.5-fold) in data set [2] was 1 to 3 µM.
`CCN1CCC[C@@H]2CN(c3ccc4cc(-c5cn6cc(C)nc(C)c6n5)c(=O)oc4c3)C[C@@H]21` [Compound 786, 3-(6,8-dimethylimidazo[1,2-a]pyrazin-2-yl)-7-[(4aR,7aR)-1-ethyloctahydro-6H-pyrrolo[3,4-b]pyridin-6-yl]-2H-chromen-2-one] showed a melting point of 215 to 221 °C. Also, in data set [1], the EC1.5x (concentration giving 1.5-fold Smn protein increase) is less than 300 nM; the “maximum fold (Fold) increase” value is “**** (fold increase between >1.5 and ≤1.65)”. In data set [2], the EC (1.5-fold) was less than 0.1 µM.
For the compound `CCN1CCC(c2ccc3cc(-c4cn5cc(C)ncc5n4)c(=O)oc3c2)CC1` [Compound 844, 7-(1-ethylpiperidin-4-yl)-3-(6-methylimidazo[1,2-a]pyrazin-2-yl)-2H-chromen-2-one], the melting point is 249 to 259 °C. Besides, in data set [1], the EC1.5x (concentration giving 1.5-fold Smn protein increase) fell in the range of 300 to 1000 nM; the “maximum fold (Fold) increase” value was “**** (fold increase between >1.5 and ≤1.65)”. The EC (1.5-fold) in data set [2] is less than 0.1 µM.
On to `CCN1CCN(c2ccc3cc(-c4cc5c(C)nc(C)cn5c4)c(=O)oc3c2)CC1` [Compound 674, 3-(1,3-dimethylpyrrolo[1,2-a]pyrazin-7-yl)-7-(4-ethylpiperazin-1-yl)-2H-chromen-2-one], for which the melting point fell in the range of 182 to 185 °C. For the same compound, in data set [1], the EC1.5x (concentration giving 1.5-fold Smn protein increase) was less than 300 nM and the “maximum fold (Fold) increase” value is “***** (fold increase >1.65)”. Further, the EC (1.5-fold) in data set [2] is less than 0.1 µM.
Consider `Cc1cc(F)c2nc(-c3cc4ccc(N5CCN6CCCCC6C5)cc4oc3=O)cn2c1` (centres unmarked) [Compound 612, 3-(8-fluoro-6-methylimidazo[1,2-a]pyridin-2-yl)-7-(octahydro-2H-pyrido[1,2-a]pyrazin-2-yl)-2H-chromen-2-one], for which the melting point was in the range of 268 to 275 °C. In addition, the “maximum fold (Fold) increase” value in data set [1] is “** (fold increase between >1.2 and ≤1.35)”. Also, the EC (1.5-fold) in data set [2] is 0.3 to 1 µM.
As to `CCN(CC)Cc1ccc2cc(-c3nc4ccccc4s3)c(=O)oc2c1` [Compound 57, 3-(1,3-benzothiazol-2-yl)-7-[(diethylamino)methyl]-2H-chromen-2-one], the melting point lay within 116 to 119 °C. Besides, the “maximum fold (Fold) increase” value in data set [1] was “** (fold increase between >1.2 and ≤1.35)”. For the same compound, the EC (1.5-fold) in data set [2] lay in the range of 1 to 3 µM.
As to `C[C@H]1CN(c2ccc3cc(-c4cn5cc(F)cc(F)c5n4)c(=O)oc3c2)CCN1` [Compound 524, 3-(6,8-difluoroimidazo[1,2-a]pyridin-2-yl)-7-[(3S)-3-methylpiperazin-1-yl]-2H-chromen-2-one], the melting point lay in the range of 218 to 224 °C. Besides, the “maximum fold (Fold) increase” value in data set [1] is given as “* (maximum fold increase of ≤1.2)”. Moreover, the EC (1.5-fold) in data set [2] was 0.3 to 1 µM.
The corresponding values for `CC(C)N1CCN(c2ccc3cc(-c4nc5ccccc5s4)c(=O)oc3c2)CC1` [Compound 15, 3-(1,3-benzothiazol-2-yl)-7-[4-(propan-2-yl)piperazin-1-yl]-2H-chromen-2-one] are 238 to 246 °C, “* (maximum fold increase of ≤1.2)” and 3 to 30 µM.
The compound `CN1CCN(c2ccc3cc(-c4nc(C(F)(F)F)cs4)c(=O)oc3c2)CC1.O=C(O)C(F)(F)F` [Compound 53, 7-(4-methylpiperazin-1-yl)-3-[4-(trifluoromethyl)-1,3-thiazol-2-yl]-2H-chromen-2-one trifluoroacetate] yielded a melting point of 260 to 270 °C. Moreover, the “maximum fold (Fold) increase” value in data set [1] was “** (fold increase between >1.2 and ≤1.35)”. Further, the EC (1.5-fold) in data set [2] lay within 3 to 30 µM.
Compound `Cc1cn2cc(-c3cc4ccc(N5CC[C@@H](N(C)C)C5)cc4oc3=O)nc2c(C)n1` [Compound 690, 7-[(3R)-3-(dimethylamino)pyrrolidin-1-yl]-3-(6,8-dimethylimidazo[1,2-a]pyrazin-2-yl)-2H-chromen-2-one] displayed a melting point of 239 to 242 °C. Besides, in data set [1], the EC1.5x (concentration giving 1.5-fold Smn protein increase) is 300 to 1000 nM; the “maximum fold (Fold) increase” value is “**** (fold increase between >1.5 and ≤1.65)”. Besides, in data set [2], the EC (1.5-fold) is 0.1 to 0.3 µM.

The values are drawn from patent USRE47689E1, “Compounds for treating spinal muscular atrophy” (PTC Therapeutics, Inc., priority 2011, dated 2019).
